From patent EP0938471B1, “THE PREPARATION AND USE OF ORTHO-SULFONAMIDO ARYL HYDROXAMIC ACIDS AS MATRIX METALLOPROTEINASE AND TACE INHIBITORS” (priority 1996, dated 1998)
Counter-ions that a name gives are not always drawn.

How the values were obtained:
Assay type in all cases: biochemical
MMP-1 = target: T1, MMP-1 (Homo sapiens, UniProt P03956); test: MMP-1 inhibition (thiopeptide or fluorescent peptide substrate assay); conditions: for IC50: read-out: MMP-1 IC50; for inhibition at 1 µM: read-out: MMP-1 % inhibition, footnote: 1µM
T1 sequence (P03956 100-469): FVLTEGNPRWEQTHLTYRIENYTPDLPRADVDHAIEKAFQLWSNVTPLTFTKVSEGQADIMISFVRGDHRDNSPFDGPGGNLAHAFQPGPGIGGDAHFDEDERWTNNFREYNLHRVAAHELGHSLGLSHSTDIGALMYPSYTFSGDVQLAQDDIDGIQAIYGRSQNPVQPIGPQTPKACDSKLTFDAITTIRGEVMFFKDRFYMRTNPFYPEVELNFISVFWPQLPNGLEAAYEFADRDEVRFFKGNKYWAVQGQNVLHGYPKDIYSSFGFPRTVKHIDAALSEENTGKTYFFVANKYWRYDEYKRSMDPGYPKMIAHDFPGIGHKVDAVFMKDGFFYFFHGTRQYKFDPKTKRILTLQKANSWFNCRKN

MMP-9 = MMP-9 (Homo sapiens, UniProt P14780); test: MMP-9 inhibition (thiopeptide or fluorescent peptide substrate assay); conditions: for IC50: read-out: MMP-9 IC50; for inhibition at 1 µM: read-out: MMP-9 % inhibition, footnote: 1µM
Chain of MMP-9 (P14780 94-707): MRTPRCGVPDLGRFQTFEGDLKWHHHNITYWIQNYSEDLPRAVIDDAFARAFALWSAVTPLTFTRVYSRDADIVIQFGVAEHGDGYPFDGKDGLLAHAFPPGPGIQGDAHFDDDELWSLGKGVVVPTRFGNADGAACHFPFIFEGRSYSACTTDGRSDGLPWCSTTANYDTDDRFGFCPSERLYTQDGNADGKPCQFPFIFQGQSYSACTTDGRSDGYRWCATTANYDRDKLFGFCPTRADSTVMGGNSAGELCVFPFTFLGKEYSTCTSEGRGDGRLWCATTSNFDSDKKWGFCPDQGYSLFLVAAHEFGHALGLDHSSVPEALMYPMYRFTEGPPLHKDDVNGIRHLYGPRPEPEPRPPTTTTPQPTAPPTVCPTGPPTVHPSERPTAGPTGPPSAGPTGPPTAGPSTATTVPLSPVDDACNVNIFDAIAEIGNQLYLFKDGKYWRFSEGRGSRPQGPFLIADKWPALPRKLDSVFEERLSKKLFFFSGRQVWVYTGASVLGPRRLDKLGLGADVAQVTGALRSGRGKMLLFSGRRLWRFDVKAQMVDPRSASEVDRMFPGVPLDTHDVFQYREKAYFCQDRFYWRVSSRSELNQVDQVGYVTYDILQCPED

MMP-13 = MMP-13 (Homo sapiens, UniProt P45452); test: MMP-13 inhibition (thiopeptide or fluorescent peptide substrate assay); conditions: for IC50: read-out: MMP-13 IC50; for inhibition at 1 µM: read-out: MMP-13 % inhibition, footnote: 1µM
Protocol: The enzyme activity is measured by the rate of the color increase. The thiopeptide substrate is made up fresh as a 20 mM stock in 100% DMSO and the DTNB is dissolved in 100% DMSO as a 100 mM stock and stored in the dark at room temperature. Both the substrate and DTNB are diluted together to 1 mM with substrate buffer (50 mM HEPES pH 7.5, 5 mM CaCl2) before use. […] Alternatively, a fluorescent peptide substrate is used. In this assay, the peptide substrate contains a fluorescent group and a quenching group. Upon cleavage of the substrate by an MMP, the fluorescence that is generated is quantitated on the fluorescence plate reader. […] The substrate is dissolved in methanol and stored frozen in 1 mM aliquots. For the assay, substrate and enzymes are diluted in HCBC buffer to the desired concentrations. Compounds are added to the 96 well plate containing enzyme and the reaction is started by the addition of substrate. […] For either the thiopeptide or fluorescent peptide assays, the slope of the line is calculated and represents the reaction rate. […] The mean (x±sem) of the control rate is calculated and compared for statistical significance (p<0.05) with drug-treated rates using Dunnett's multiple comparison test.

TACE = TACE (Homo sapiens, UniProt P78536); test: TACE inhibition (fluorescent peptidyl substrate); conditions: for IC50: read-out: TACE IC50; for inhibition at 1 µM: at 1µM concentration
Chain of TACE (P78536 215-824): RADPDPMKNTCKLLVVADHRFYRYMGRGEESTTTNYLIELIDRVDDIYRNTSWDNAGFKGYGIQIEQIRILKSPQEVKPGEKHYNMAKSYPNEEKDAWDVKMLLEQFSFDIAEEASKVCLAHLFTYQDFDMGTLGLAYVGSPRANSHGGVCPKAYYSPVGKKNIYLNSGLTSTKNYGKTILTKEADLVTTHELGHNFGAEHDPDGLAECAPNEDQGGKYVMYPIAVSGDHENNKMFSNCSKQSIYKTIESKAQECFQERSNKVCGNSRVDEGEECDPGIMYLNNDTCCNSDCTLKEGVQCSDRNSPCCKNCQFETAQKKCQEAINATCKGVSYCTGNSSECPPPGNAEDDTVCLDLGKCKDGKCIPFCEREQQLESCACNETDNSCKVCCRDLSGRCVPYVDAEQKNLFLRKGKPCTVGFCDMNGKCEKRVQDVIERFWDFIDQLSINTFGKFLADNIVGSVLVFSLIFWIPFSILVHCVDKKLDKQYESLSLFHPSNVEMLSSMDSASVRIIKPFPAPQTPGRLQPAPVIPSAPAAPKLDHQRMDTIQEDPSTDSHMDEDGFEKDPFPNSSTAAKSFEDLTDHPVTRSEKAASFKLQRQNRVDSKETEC
Protocol: Using 96-well black microtiter plates, each well receives a solution composed of 10 µL TACE (Immunex, final concentration 1µg/mL), 70µL Tris buffer, pH 7.4 containing 10% glycerol (final concentration 10 mM), and 10 µL of test compound solution in DMSO (final concentration 1µM, DMSO concentration <1%) and incubated for 10 minutes at room temperature.
The reaction is read (excitation 340 nm, emission 420 nm) for 10 min. and the increase in fluorescence over time is plotted as a linear line. The slope of the line is calculated and represents the reaction rate.
The linearity of the reaction rate is confirmed (r^2 >0.85). The mean (x±sem) of the control rate is calculated and compared for statistical significance (p<0.05) with drug-treated rates using Dunnett's multiple comparison test.

| Compound | IC50 (MMP-1) [nM] | IC50 (MMP-9) [nM] | IC50 (MMP-13) [nM] | IC50 (TACE) [nM] | inhibition at 1 µM (TACE) [%] | MMP-1 % inhibition (MMP-1; concentration given as (10), unit not given) | inhibition at 1 µM (MMP-1) [%] | inhibition at 1 µM (MMP-9) [%] | inhibition at 1 µM (MMP-13) [%] |
| --- | --- | --- | --- | --- | --- | --- | --- | --- | --- |
| COc1ccc(S(=O)(=O)N(Cc2cccnc2)c2c(C)cc(-c3ccccc3C(F)(F)F)cc2C(=O)NO)cc1 [Example 252, 4-[(4-Methoxy-benzenesulfonyl)-pyridin-3-ylmethyl-amino]-5-methyl-2'-trifluoromethyl-biphenyl-3-carboxylic acid hydroxyamide] | 652 | 15 | 10 | 346 |  |  |  |  |  |
| COc1ccc(S(=O)(=O)N(Cc2ccc(OCCN3CCCCC3)cc2)c2c(C)cc(Br)cc2C(=O)NO)cc1 [Example 395, 5-Bromo-N-hydroxy-2-{(4-methoxy-benzenesulfonyl)-[4-(2-piperidin-1-yl-ethoxy)-benzyl]-amino}-3-methyl-benzamide] | 35 | 2.3 | 3.1 | 108 |  |  |  |  |  |
| C=Cc1cc(C)c(N(Cc2ccccc2)S(=O)(=O)c2ccc(OC)cc2)c(C(=O)NO)c1 [Example 267, 2-[Benzyl-(4-methoxy-benzenesulfonyl)-amino]-N-hydroxy-3-methyl-5-vinyl-benzamide] | 59 | 3 | 13 | 136 |  |  |  |  |  |
| COc1ccc(S(=O)(=O)N(Cc2cccnc2)c2c(C)cc(-c3cccc([N+](=O)[O-])c3)cc2C(=O)NO)cc1 [Example 400, 4-[(4-Methoxy-benzenesulfonyl)-pyridin-3-ylmethyl-amino]-5-methyl-3'-nitro-biphenyl-3-carboxylic acid hydroxyamide hydrochloride salt] | 295 | 6 | 4.9 | 231 |  |  |  |  |  |
| C#Cc1cc(C)c(N(Cc2ccccc2)S(=O)(=O)c2ccc(OC)cc2)c(C(=O)NO)c1 [Example 80, 2-[Benzyl-(4-methoxy-benzenesulfonyl)-amino]-5-ethynyl-N-hydroxy-3-methyl-benzamide] | 109 | 21 | 18 | 134 |  |  |  |  |  |
| COc1ccc(S(=O)(=O)N(Cc2cccc(Br)c2)c2c(C)cc(C)cc2C(=O)NO)cc1 [Example 119, 2-[(3-Bromo-benzyl)-(4-methoxy-benzenesulfonyl)-amino]-N-hydroxy-3,5-dimethyl-benzamide] | 223 | 27 | 14 | 252 |  |  |  |  |  |
| COc1ccc(S(=O)(=O)N(Cc2ccccc2)c2c(C)ccc(C)c2C(=O)NO)cc1 [Example 292, 2-[Benzyl-(4-methoxy-benzenesulfonyl)-amino]-N-hydroxy-3,6-dimethyl-benzamide] | 184 | 8 | 29 |  | 7 |  |  |  |  |
| CCCCCCCCCCCCc1cc(C)c(N(C)S(=O)(=O)c2ccc(OC)cc2)c(C(=O)NO)c1 [Example 360, 5-Dodecyl-N-hydroxy-2-[(4-methoxy-benzenesulfonyl)-methyl-amino]-3-methyl-benzamide] |  | 525 | 1260 | 1400 |  | 14%(10) |  |  |  |
| CCN(CC)CC#CCN(c1c(C)cccc1C(=O)NO)S(=O)(=O)c1ccc(OC)cc1 [Example 381, 2-[(4-Diethylamino-but-2-ynyl)-(4-methoxy-benzenesulfonyl)-amino]-N-hydroxy-3-methyl-benzamide] | 470 | 11 | 19 | 218 |  |  |  |  |  |
| COc1ccc(S(=O)(=O)N(Cc2cccnc2)c2c(C)cc(-c3ccc(C=NO)cc3)cc2C(=O)NO)cc1 [Example 249, 4'-(Hydroxyimino-methyl)-4-[(4-methoxy-benzenesulfonyl)-pyridin-3-ylmethyl-amino]-5-methyl-biphenyl-3-carboxylic acid hydroxyamide] | 231 | 2.8 | 6 | 100 |  |  |  |  |  |
| COc1ccc(S(=O)(=O)N(Cc2ccncc2)c2c(C)cccc2C(=O)NO)cc1 [Example 376, N-Hydroxy-2-[(4-methoxy-benzenesulfonyl)-pyridin-4-ylmethyl-amino]-3-methyl-benzamide] | 391 | 8.4 | 18 | 645 |  |  |  |  |  |
| COc1ccc(S(=O)(=O)N(Cc2ccsc2)c2c(CN3CCN(C)CC3)cccc2C(=O)NO)cc1 [Example 328, N-Hydroxy-2-[(4-methoxy-benzenesulfonyl)-thiophen-3-ylmethyl-amino]-3-(4-methyl-piperazin-1-ylmethyl)-benzamide] | 326 | 4.9 | 13 | 263 |  |  |  |  |  |
| COc1ccc(S(=O)(=O)N(Cc2cccnc2)c2c(C)cc(-c3sccc3C=NO)cc2C(=O)NO)cc1 [Example 258, N-Hydroxy-5-[3-(hydroxyimino-methyl)-thiophen-2-yl]-2-[(4-methoxy-benzenesulfonyl)-pyridin-3-ylmethyl-amino]-3-methyl-benzamide] | 169 | 8 | 7 | 110 |  |  |  |  |  |
| COc1ccc(S(=O)(=O)N(CC(=O)OCc2ccccc2)c2c(C)cccc2C(=O)NO)cc1 [Example 385, [(2-Hydroxycarbamoyl-6-methyl-phenyl)-(4-methoxy-benzenesulfonyl)-amino]-acetic acid benzyl ester] |  |  |  |  | 56 |  | 25 | 65 | 66 |
| CCN(Cc1ccncc1)C(=O)C=Cc1cc(C)c(N(C)S(=O)(=O)c2ccc(OC)cc2)c(C(=O)NO)c1 [Example 219, 5-[2-(Ethyl-pyridin-4-ylmethyl-carbamoyl)-vinyl]-N-hydroxy-2-[(4-methoxy-benzenesulfonyl)-methyl-amino]-3-methyl-benzamide] | 290 | 6.7 | 5.8 | 548 |  |  |  |  |  |
| COc1ccc(S(=O)(=O)N(Cc2cccnc2)c2c(CN3CCCC3)cccc2C(=O)NO)cc1 [Example 320, N-Hydroxy-2-[(4-methoxy-benzenesulfonyl)-pyridin-3-ylmethyl-amino]-3-pyrrolidin-1-ylmethyl-benzamide] | 2190 | 46 | 150 | 142 |  |  |  |  |  |
| N-Hydroxy-2-[(4-methoxy-benzenesulfonyl)-pyridin-3-ylmethyl-amino]-5-methyl-3-thiophen-2-yl-benzamide [Example 145] | 55 | 7 | 3 | 158 |  |  |  |  |  |
| COc1ccc(S(=O)(=O)N(Cc2ccc(C(=O)NCCN3CCCCC3)cc2)c2c(C)cccc2C(=O)NO)cc1 [Example 396] | 184 | 6.3 | 35 | 363 |  |  |  |  |  |
| COc1ccc(S(=O)(=O)N(Cc2ccccc2)c2c(C)cc(N(C)C)cc2C(=O)NO)cc1 [Example 389, 2-[Benzyl-(4-methoxy-benzenesulfonyl)-amino]-5-dimethylamino-N-hydroxy-3-methyl-benzamide] | 63 | 2 | 39 | 633 |  |  |  |  |  |
| COc1ccc(S(=O)(=O)N(Cc2ccccc2)c2c(CN3CCN(C)CC3)cccc2C(=O)NO)cc1 [Example 329, N-Hydroxy-2-[[(4-methoxyphenyl)sulfonyl](phenylmethyl)-amino]-3-[(4-methyl-1-piperazinyl)methyl]benzamide] | 319 | 6.1 | 23 | 173 |  |  |  |  |  |
| COc1ccc(S(=O)(=O)N(Cc2ccccc2)c2c(OCCCCC(=O)NO)cccc2C(=O)NO)cc1 [Example 59, 2-[Benzyl-(4-methoxy-benzenesulfonyl)-amino]-N-hydroxy-3-(4-hydroxycarbamoyl-butoxy)-benzamide] | 242 | 8 | 34 | > 1000 |  |  |  |  |  |
| COc1ccc(S(=O)(=O)N(Cc2ccccc2)c2c(C#N)cc(C)cc2C(=O)NO)cc1 [Example 179] | 680 | 40 | 53 |  | 64 |  |  |  |  |
| COc1ccc(-c2ccc(-c3cc(C)c(N(Cc4cccnc4)S(=O)(=O)c4ccc(OC)cc4)c(C(=O)NO)c3)cc2)cc1 [Example 399, 4"-Methoxy-4-[(4-methoxy-benzenesulfonyl)-pyridin-3-ylmethyl-amino]-5-methyl-[1,1';4',1"]terphenyl-3-carboxylic acid hydroxyamide hydrochloride salt] | 2200 | 45 | 41 |  | 25 |  |  |  |  |
| COc1ccc(S(=O)(=O)N(Cc2ccccc2)c2c(OCCO)cccc2C(=O)NO)cc1 [Example 345, 2-[Benzyl-(4-methoxy-benzenesulfonyl)-amino]-N-hydroxy-3-(2-hydroxy-ethoxy)-benzamide] | 1160 | 31 | 134 | 523 |  |  |  |  |  |
| COCc1cccc(C(=O)NO)c1N(Cc1cccnc1)S(=O)(=O)c1ccc(OC)cc1 [Example 363, N-Hydroxy-2-[(4-methoxy-benzenesulfonyl)-pyridin-3-ylmethyl-amino]-3-methoxymethyl-benzamide] | 449 | 20 | 54 | 137 |  |  |  |  |  |
| CCOC(=O)CCCN(c1c(C)cccc1C(=O)NO)S(=O)(=O)c1ccc(OC)cc1 [Example 383, 4-[(2-Hydroxycarbamoyl-6-methyl-phenyl)-(4-methoxy-benzenesulfonyl)-amino]-butyric acid ethyl ester] |  |  |  |  | 45 |  | 34 | 87 | 48 |
